Source: the NIST ThermoML archive (doi:10.1016/j.jct.2007.07.005)

Assay: xn = mol fraction of the nth substance listed
Conditions: Fluid (supercritical or subcritical phases), vibrating tube

CCCCCO [pentan-1-ol] + O=C=O
Conditions | mass density [kg/m3]
362.66 K, 13063 kPa, x2 = 0.0816 | 774.24
362.66 K, 14005 kPa, x2 = 0.0816 | 775.13
362.66 K, 15014 kPa, x2 = 0.0816 | 776.09
362.66 K, 16024 kPa, x2 = 0.9216 | 573.29
362.66 K, 16035 kPa, x2 = 0.0816 | 777.05
362.66 K, 17029 kPa, x2 = 0.0816 | 777.98
362.66 K, 17029 kPa, x2 = 0.9216 | 602.35
362.66 K, 18005 kPa, x2 = 0.0816 | 778.87
362.66 K, 18035 kPa, x2 = 0.9216 | 625.49
362.66 K, 19005 kPa, x2 = 0.9216 | 644.28
362.66 K, 19061 kPa, x2 = 0.0816 | 779.82
362.66 K, 19993 kPa, x2 = 0.0816 | 780.66
362.66 K, 20065 kPa, x2 = 0.9216 | 661.85
362.66 K, 21022 kPa, x2 = 0.0816 | 781.57
362.66 K, 21055 kPa, x2 = 0.9216 | 676.21
362.66 K, 22016 kPa, x2 = 0.9216 | 688.72
362.66 K, 22027 kPa, x2 = 0.0816 | 782.43
362.66 K, 23003 kPa, x2 = 0.0816 | 783.28
362.66 K, 23071 kPa, x2 = 0.9216 | 701.08
362.66 K, 23748 kPa, x2 = 0.9216 | 708.43
362.66 K, 23994 kPa, x2 = 0.0816 | 784.14
362.66 K, 25028 kPa, x2 = 0.0816 | 785.05
362.67 K, 16036 kPa, x2 = 0.7274 | 743.56
362.67 K, 17030 kPa, x2 = 0.7274 | 749.82
362.67 K, 18000 kPa, x2 = 0.7274 | 755.36
362.67 K, 19028 kPa, x2 = 0.7274 | 760.67
362.67 K, 20033 kPa, x2 = 0.7274 | 765.6
362.67 K, 21074 kPa, x2 = 0.7274 | 770.32
362.67 K, 22015 kPa, x2 = 0.7274 | 774.34
362.67 K, 23077 kPa, x2 = 0.7274 | 778.68
362.67 K, 24033 kPa, x2 = 0.7274 | 782.39
362.67 K, 25155 kPa, x2 = 0.7274 | 786.55
362.76 K, 15032 kPa, x2 = 0.6054 | 774.3
362.76 K, 16035 kPa, x2 = 0.6054 | 777.11
362.76 K, 17040 kPa, x2 = 0.6054 | 779.89
362.76 K, 18044 kPa, x2 = 0.6054 | 782.5
362.76 K, 19042 kPa, x2 = 0.6054 | 785.04
362.76 K, 20068 kPa, x2 = 0.6054 | 787.6
362.76 K, 21079 kPa, x2 = 0.6054 | 790.03
362.76 K, 22029 kPa, x2 = 0.6054 | 792.27
362.76 K, 23044 kPa, x2 = 0.6054 | 794.59
362.76 K, 24071 kPa, x2 = 0.6054 | 796.88
362.76 K, 25065 kPa, x2 = 0.6054 | 799.05
362.79 K, 7017 kPa, x2 = 0.1347 | 768.35
362.79 K, 7974 kPa, x2 = 0.1347 | 769.41
362.79 K, 9023 kPa, x2 = 0.1347 | 770.53
362.79 K, 9999 kPa, x2 = 0.1347 | 771.53
362.79 K, 10899 kPa, x2 = 0.1347 | 772.5
362.79 K, 12022 kPa, x2 = 0.1347 | 773.68
362.79 K, 13018 kPa, x2 = 0.1347 | 774.7
362.79 K, 14016 kPa, x2 = 0.1347 | 775.72
362.79 K, 15031 kPa, x2 = 0.1347 | 776.75
362.79 K, 16022 kPa, x2 = 0.1347 | 777.7
362.79 K, 17016 kPa, x2 = 0.1347 | 778.71
362.79 K, 18017 kPa, x2 = 0.1347 | 779.67
362.79 K, 19013 kPa, x2 = 0.1347 | 780.6
362.79 K, 20017 kPa, x2 = 0.1347 | 781.57
362.79 K, 21040 kPa, x2 = 0.1347 | 782.53
362.79 K, 22011 kPa, x2 = 0.1347 | 783.41
362.79 K, 23022 kPa, x2 = 0.1347 | 784.34
362.79 K, 24039 kPa, x2 = 0.1347 | 785.29
362.79 K, 25030 kPa, x2 = 0.1347 | 786.19
